The values that follow come from patent US8940697B2, “Compositions and methods for the treatment of myocardial ischemia/reperfusion injury with Annexin A1 short peptide” (Duke University, priority 2009, dated 2015).

No end group written: not given here.

For this assay, the system named is adult rat ventricular cardiomyocytes (ARVC). In words: Long-term culture survival of adult rat cardiomyocytes in normal or high glucose. The conditions noted are these: normal and hyperglycemic media, beyond day 14. Type of assay: cell-based. From the text:
Cardiomyocytes isolated from adult rats were exposed to ANXAsp (FIG. 3C and FIG. 3D) or the N-terminal 25mer Ac2-26 (FIG. 3E and FIG. 3F) in either normal glucose (NG) or high glucose (HG), respectively, for 26 days, Untreated control cells in normoglycemic and hyperglycemic media are presented in FIG. 3A and FIG. 3B,
Cardiomyocytes isolated from adult rat in both normal and hyperglycemic culture media were exposed directly to ANXA1sp. […] The cardioprotective effects of ANXA1sp was further examined in hyperglycemic exacerbation of myocardial injury due to simulated ischemia/reperfusion in vitro. Adult rat ventricular cardiomyocytes (ARVCs) were treated with/without either ANXA1sp or Ac2-26 in both normo- and hyperglycemic culture media for 24 hours. Cells were washed with deoxygenated glucose-free DMEM medium in an anaerobic chamber that filtrated a gas mixture of 5% CO2-10% H2-85% N2 and incubated for 2 hours. After oxygen/glucose deprivation (OGD), cells were cultured under normoxic conditions in a 5% CO2 incubator for 24 hours. Cells without OGD were used as a positive control. Cell death was determined by trypan blue exclusive staining. Cells were counted in triplicate wells and in eight random fields in each well.

For the substance “Ac-Ala-Met-Val-Ser-Glu-Phe-Leu-Lys-Gln-Ala-Trp-Phe-Ile-Glu-Asn-Glu-Glu-Gln-Glu-Tyr-Val-Gln-Tyr-Val-Lys (Ac-AMVSEFLKQAWFIENEEQEYVQYVK) [Ac2-26, commercial annexin A1 N-terminal 25mer peptide, reference compound]”, the rod-shaped cardiomyocytes found entry was “no rod-shaped cardiomyocytes were found”.
